Experimental data from BindingDB's records for patent US12544382 (Beijing Tide Pharmaceutical Co., 2026).

target: Serine/threonine-protein kinase ATR (Homo sapiens, UniProt Q13535); experiment: ATR Kinase Activity Assay
Description: Biotinylated protein derived from p53 (Eurofins, art. No.: 14-952) was phosphorylated with ATR kinase. The amount of phosphorylated protein was determined by time-resolved fluorescence in this assay. The amount of phosphorylated protein was detected by anti-p53-phospho-(serine 15)-K-specific antibody (Cisbio, art. No.: 61GSTDLA) and d2 labeled anti-GST antibody (Cisbio, art. No. 61P08KAE). Before the experiment, the following working solution was prepared as required: 1× reaction buffer (20 mM HEPES PH8.0, 1% glycerol, 0.01% Brij-35), dilution buffer (20 mM HEPES PH8.0, 1% glycerol, 0.01% Brij-35, 5 mM DTT and 1% BSA), stop solution (20 mM HEPES PH8.0, 1% glycerol, 0.01% Brij-35, 250 mM EDTA), detection buffer (50 mM HEPES pH7.0, 150 mM NaCl, 267 mM KF, 0.1% sodium cholate, 0.01% Tween-20, 0.0125% sodium azide). The reagents used above are purchased from Sigma or Invitrogen, except for those where the manufacturer was mentioned.

Chain of Serine/threonine-protein kinase ATR (Q13535 whole entry): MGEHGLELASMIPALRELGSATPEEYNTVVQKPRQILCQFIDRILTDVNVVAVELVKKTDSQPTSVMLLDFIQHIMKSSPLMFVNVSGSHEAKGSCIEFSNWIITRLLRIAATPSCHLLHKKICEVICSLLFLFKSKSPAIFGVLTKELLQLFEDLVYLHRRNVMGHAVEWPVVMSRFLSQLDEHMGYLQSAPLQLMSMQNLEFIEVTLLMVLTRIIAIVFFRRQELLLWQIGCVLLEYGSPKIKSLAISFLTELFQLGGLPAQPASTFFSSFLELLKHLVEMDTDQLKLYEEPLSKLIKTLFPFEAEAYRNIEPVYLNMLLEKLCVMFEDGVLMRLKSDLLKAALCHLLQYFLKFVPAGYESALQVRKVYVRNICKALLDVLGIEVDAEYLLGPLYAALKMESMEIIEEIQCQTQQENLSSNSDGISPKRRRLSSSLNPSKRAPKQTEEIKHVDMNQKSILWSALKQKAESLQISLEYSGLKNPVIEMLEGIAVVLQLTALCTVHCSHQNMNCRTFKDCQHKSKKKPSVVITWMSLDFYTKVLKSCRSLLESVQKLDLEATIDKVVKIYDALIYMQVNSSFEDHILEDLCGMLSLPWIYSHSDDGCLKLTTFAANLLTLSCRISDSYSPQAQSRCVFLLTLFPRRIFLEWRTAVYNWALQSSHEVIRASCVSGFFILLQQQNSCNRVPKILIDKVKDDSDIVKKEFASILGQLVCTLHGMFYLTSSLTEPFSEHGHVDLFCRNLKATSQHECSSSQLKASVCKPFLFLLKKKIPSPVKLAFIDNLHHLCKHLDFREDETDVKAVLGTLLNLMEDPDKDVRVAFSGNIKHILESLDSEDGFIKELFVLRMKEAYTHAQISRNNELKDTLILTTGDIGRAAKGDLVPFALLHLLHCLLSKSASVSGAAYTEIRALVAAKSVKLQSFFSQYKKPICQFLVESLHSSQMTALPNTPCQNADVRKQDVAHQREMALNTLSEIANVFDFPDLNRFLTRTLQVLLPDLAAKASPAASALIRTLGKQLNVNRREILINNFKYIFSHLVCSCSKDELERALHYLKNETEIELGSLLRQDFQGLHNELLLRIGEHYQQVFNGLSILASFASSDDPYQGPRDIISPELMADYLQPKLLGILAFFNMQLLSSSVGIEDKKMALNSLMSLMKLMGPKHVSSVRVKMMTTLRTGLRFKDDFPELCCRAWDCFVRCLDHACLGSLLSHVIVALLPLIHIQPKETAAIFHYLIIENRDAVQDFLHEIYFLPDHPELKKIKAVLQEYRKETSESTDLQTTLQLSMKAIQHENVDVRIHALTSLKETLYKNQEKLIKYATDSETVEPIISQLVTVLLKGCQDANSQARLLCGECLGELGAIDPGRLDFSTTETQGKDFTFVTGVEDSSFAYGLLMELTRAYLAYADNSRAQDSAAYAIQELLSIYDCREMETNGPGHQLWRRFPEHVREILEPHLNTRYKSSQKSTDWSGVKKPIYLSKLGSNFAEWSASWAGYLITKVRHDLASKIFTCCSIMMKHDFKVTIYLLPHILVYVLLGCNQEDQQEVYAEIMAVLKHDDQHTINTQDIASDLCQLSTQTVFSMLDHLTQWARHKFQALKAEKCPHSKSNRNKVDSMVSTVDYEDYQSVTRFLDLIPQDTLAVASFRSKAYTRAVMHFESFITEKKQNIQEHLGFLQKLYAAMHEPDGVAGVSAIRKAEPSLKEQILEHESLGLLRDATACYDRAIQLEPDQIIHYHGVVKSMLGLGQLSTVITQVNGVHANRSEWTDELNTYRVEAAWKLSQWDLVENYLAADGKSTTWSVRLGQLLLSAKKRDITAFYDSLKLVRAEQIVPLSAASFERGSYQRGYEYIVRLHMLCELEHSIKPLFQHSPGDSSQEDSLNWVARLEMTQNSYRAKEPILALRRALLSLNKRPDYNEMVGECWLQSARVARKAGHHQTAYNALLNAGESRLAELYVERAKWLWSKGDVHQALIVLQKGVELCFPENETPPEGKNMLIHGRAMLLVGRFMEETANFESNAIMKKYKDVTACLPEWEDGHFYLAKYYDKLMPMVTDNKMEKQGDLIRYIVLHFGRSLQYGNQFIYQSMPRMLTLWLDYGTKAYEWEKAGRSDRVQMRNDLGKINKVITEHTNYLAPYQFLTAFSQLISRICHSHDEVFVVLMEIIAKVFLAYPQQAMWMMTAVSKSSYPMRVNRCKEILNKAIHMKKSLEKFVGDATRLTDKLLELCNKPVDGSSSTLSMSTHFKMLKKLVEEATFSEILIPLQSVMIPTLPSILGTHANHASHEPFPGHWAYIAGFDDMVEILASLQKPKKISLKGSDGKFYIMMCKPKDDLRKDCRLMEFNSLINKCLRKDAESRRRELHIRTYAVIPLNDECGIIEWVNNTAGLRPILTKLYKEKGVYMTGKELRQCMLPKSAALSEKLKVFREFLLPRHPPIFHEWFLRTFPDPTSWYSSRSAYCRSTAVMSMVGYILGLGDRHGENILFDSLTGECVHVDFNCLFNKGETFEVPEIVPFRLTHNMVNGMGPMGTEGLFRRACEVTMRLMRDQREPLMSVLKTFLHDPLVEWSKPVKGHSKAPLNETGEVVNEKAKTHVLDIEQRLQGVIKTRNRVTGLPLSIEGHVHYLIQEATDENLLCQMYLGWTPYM

IC50	Structure (SMILES)
0.047 µM	Cc1n[nH]c(C)c1-c1cc(N2CCOC[C@H]2C)nc(-c2ccnc3c2ccn3CC2CNC2)n1 [US12544382, Example A27]
0.083 µM	CNc1nc2cc(Cl)ccc2n1-c1nc(-c2c(C)nn(C3CCNCC3)c2C(F)(F)F)cc(N2CCOC[C@H]2C)n1 [US12544382, Example D25]
0.003 µM	CNc1nc2ccccc2n1-c1nc(-c2c(C)nn(C3CCNCC3)c2C(F)(F)F)cc(N2CCOC[C@H]2C)n1 [US12544382, Example D24]
2.32 µM	Cc1nn(C)c(C)c1-c1cc(N2CCOC[C@H]2C)nc(-c2ccnc(C(F)F)c2)n1 [US12544382, Example A25]
